In ChEMBL document CHEMBL3507680, “University of Dundee, Gates Library screen for HepG2 cell viability”:

Assay: Human HepG2 cell viability assay in 384 well format
Assay type: toxicity, cell-based
Set-up: dose 125 nL, time 70.5 hour; cytotoxicity at 70.5 h: concentration not given beside the values
Conditions: HepG2 cells, read-out: Inhibition

Structure (SMILES)	cytotoxicity at 70.5 h [%]
COc1ccc(C(=O)c2cnc(C(C)C)n2C)cc1	17.7
COc1ccc(Nc2c[nH]c(=O)[nH]c2=O)cc1	4.35
COc1cccc(Oc2nc(C)c(C(=O)O)s2)c1OC	-13.3
Cn1nc(-c2ccccc2)c(Br)c1C(=O)O	-23.2
O=C(O)Cn1ccc(=O)c2ccc(Cl)cc21	-7.34
CC(C)CCc1n[nH]c(C(=O)O)c1Br	-7.1
CC(C)CCc1n[nH]c(C(=O)O)c1I	-8.29
Cn1nc(-c2ccc(Cl)cc2)c(Br)c1C(=O)O	-23.3
CC(C)Oc1ccc(CC2=N[C@](C)(CO)CO2)cc1	21.4
Nc1nc2c(c3c1C(=O)NC3=O)CCCC2	-9.66
C/C(NC(=O)c1ccccn1)=C1\C(=O)C[C@@H]2[C@H]1C2(C)C	-2.07
Cc1c(C2N3C[C@]4(C)CN2C[C@](C)(C3)C4=O)[nH]c(=O)[nH]c1=O (stereo not given in full)	-11.7
O=C(Cn1ccc2ccc(F)cc21)NC[C@@H]1CCCN2CCCC[C@H]12	8.28
O=C(CCn1ccc2cc(Br)ccc21)NC[C@@H]1CCCN2CCCC[C@H]12	19.3
COc1cccc2ccn(CC(=O)NCCC(C)C)c12	11
COc1cccc2ccn(CC(=O)NC(C)C)c12	11.3
COCC(=O)N(Cc1ccc2cc[nH]c2c1)C1CC1	-21
COc1c(C(N)=O)cn(C)c1-c1nc2cc(NC(C)=O)ccc2n1C	-14.7
CSCC[C@H](NC(=O)Cn1ccc2c(Br)cccc21)C(=O)O	-21.8
Cc1nn(-c2ncnc3[nH]cnc23)c2c1C(CC(C)C)CC(=O)N2 (stereo not given)	-2.59
COc1ccc2c(ccn2CC(=O)NC[C@@H]2CCCN3CCCC[C@H]23)c1	-7.27
O=C(Cn1ccc2ccccc21)NC[C@@H]1CCCN2CCCC[C@H]12	-10.1
Cc1cccc2c1ccn2CC(=O)NC[C@@H]1CCCN2CCCC[C@H]12	-6.63

Structure (SMILES)	cytotoxicity at 70.5 h [%]
O=C(NCCCO)c1cc(-c2ccc3c(c2)CCO3)n[nH]1	14.5
CC[S+](CC)[c-]1c(=O)[nH]c(=O)n(Cc2ccc(F)cc2)c1=O	3.21
CN(C)c1no[n+]([O-])c1-c1ccccc1	20.3
Cc1cc(NCCO)nc(-c2ccccc2O)n1	6.62
CC(Cn1ccnc1)NC1CCN(Cc2cccc(O)c2)CC1 (stereo not given)	-4.85
CCN(CC)C(CNCc1ccc(O)cc1)c1ccco1 (stereo not given)	27
CCC(C(=O)N(C)CCC1=CCN(C)CC1)c1ccccc1 (stereo not given)	57.9
CC(=O)N1CCN(Cc2ccc(C(F)(F)F)c(F)c2)CC(O)C1 (stereo not given)	0.294
CNC(=O)[C@@H]1C[C@@H](N)CN1C(=O)CCSCc1ccccc1	-4.11
CCN1CC2(CCN(CC3COCCO3)CC2)OC1=O (stereo not given)	44.4
CCc1ccc(OCC(=O)N2CCN(CC)CC2)cc1	-6.61
CN(Cc1cccnc1)CC1CCOc2ccccc2C1 (stereo not given)	-5.68
COCCn1ccnc1C1CCCN(C(=O)c2cccnc2SC)C1 (stereo not given)	13
Cc1ccc2nc(C3CCCN3C(=O)c3cc(=O)[nH]c(=O)[nH]3)[nH]c2c1 (stereo not given)	30.8
O=C1[C@@H]2CN(c3ncc(Cl)cc3F)C[C@]2(C(=O)O)CN1CC1CC1	-5.98
CC(C)(O)CCc1cccc(C(=O)N[C@@H](CO)C(N)=O)c1	3.89
Cc1cc(-c2n[nH]c3c2CN(S(=O)(=O)c2ccsc2)CC3)c(C)o1	-9.27
COc1ccc(OCc2cc(C(=O)N3CC=CC3)n[nH]2)c(Cl)c1	-3
O=C(CN1CCOc2ccccc2C1)NCc1cc2n(n1)CCCNC2	-2.45
COc1ccccc1OCc1cc(C(=O)N2CCC(C(C)O)CC2)n[nH]1 (stereo not given)	-5.66
COc1cccc2c1OCC(CNC(=O)COCC(F)(F)C(F)F)C2 (stereo not given)	8.83
COCCc1noc(Cn2ccc3ccccc3c2=O)n1	-0.672
CCOC(=O)N1CCN(CC(=O)Nc2nnc(CC)s2)CC1	-4.24

Structure (SMILES)	cytotoxicity at 70.5 h [%]
O=C(O)C(c1ccc2c(c1)OCCO2)N1CCC(N2CCOCC2)CC1 (stereo not given)	0.0244
CCc1nnc(CNC(=O)CCC2CCCCN2C)s1 (stereo not given)	6.71
Cc1nsc(NC(=O)N2CCCCC2CCCO)n1 (stereo not given)	-1.47
Cc1cc(C2CCC2)nc(N2CCC3(CCCNC3=O)C2)n1 (stereo not given)	-18.8
Cc1oc(C(C)C)cc1C(=O)N1CCN(c2cnn(C)c(=O)c2)CC1	-3.48
c1ccc2c(c1)CC(n1ccnc1-c1cc3n(n1)CCNC3)CO2 (stereo not given)	1.41
COc1ccccc1N1CCN(C(=O)CCn2ccnc2C)CC1(C)C	21.5
Cc1cc(CN2CCC(c3nccn3C(C)C)CC2)ccc1F	15.8
c1ccc(CCCN2CCCC(Nc3cnc4ccccc4n3)C2)cc1 (stereo not given)	-2.78
Cc1cc(=O)n(CC(=O)NC2CCCCC2)c2ccccc12	-8.81
Cc1nc(CN2CCCN(CCOc3ccc(C#N)cc3)CC2)no1	-0.262
CC(C)c1nccn1C1CCCN(C(=O)CN(C)C2CC2)C1 (stereo not given)	-2.03
O=C(NCCn1ccnc1)c1ccn(-c2ccc(F)cc2)n1	-2.38
O=C(NCCn1ccnc1)c1ccn(-c2ccccc2F)n1	13.4
CC(C)c1nccn1C1CCCN(C(=O)CCc2cscn2)C1 (stereo not given)	-6.33
CC(C)c1nccn1C1CCCN(C(=O)CCCc2ccccn2)C1 (stereo not given)	-10.5
Cc1nc(CN2CCCC2c2c(C)nn(C)c2Cl)oc1C (stereo not given)	19.6
Cc1noc(C)c1CN1CCCC1c1c(C)nn(C)c1Cl (stereo not given)	-2.34
O=C(NCC1CCOC1)N1CCN(Cc2ccc3c(c2)OCO3)CC1 (stereo not given)	3.28
O=C(NCC1CCCO1)N1CCN(Cc2ccc3c(c2)CCO3)CC1 (stereo not given)	-9.76
Cc1nc(C(C)(C)C)sc1C(=O)NCCNc1ncccn1	-8.27
Cc1cc(C)c(CNC(=O)N(C)Cc2ccoc2)c(=O)[nH]1	-2.92
Cc1cc(C)c(CNC(=O)N(C)Cc2ccc(F)cc2)c(=O)[nH]1	18.3

Structure (SMILES)	cytotoxicity at 70.5 h [%]
Cc1cc(C)c(CNC(=O)N(C)Cc2ccc3c(c2)OCO3)c(=O)[nH]1	-3.96
COc1cccc(CN(C)C(=O)NCc2c(C)cc(C)[nH]c2=O)c1	-4.51
CC(NC(=O)NCc1ccccc1)(C(=O)O)c1ccco1 (stereo not given)	-9.81
CCOc1ccnc(N2CCN(C(=O)c3ccoc3)CC2)n1	18.6
Cc1nnc2n1CCN(C(=O)c1cc(C)n(-c3cccnc3)c1C)C2	-1.82
COc1cc(C)nc(N2CCN(C(=O)c3cccc(C#N)c3)CC2)n1	-5.09
CCOc1ccnc(N2CCN(C(=O)c3cccnc3)CC2)n1	-8.35
CC(C)c1nccn1C1CCCN(C(=O)c2nccnc2N)C1 (stereo not given)	17.2
Cc1ncncc1C(=O)N1CCOC(c2nc(C(C)C)n[nH]2)C1 (stereo not given)	-4.74
Cc1cc(C)n(CC2CN(CCOc3ccc(C#N)cc3)CCO2)n1 (stereo not given)	-4.48
O=C(NCc1ccccc1Cn1cncn1)C1CCC1	-4.18
O=C(NCc1ccccc1Cn1cncn1)C1CCCCC1	-9.09
O=C(CCS(=O)(=O)C1CCCC1)NCc1ccccc1Cn1cncn1	-11
Cc1nccn1-c1cc(CNC(=O)NCC2CCCO2)ccn1 (stereo not given)	-0.7
OCCn1nccc1C1CCN(CCOc2cccc(F)c2)CC1	-1.45
Cc1ccc(C(C)NCc2c(C(C)C)nn(C)c2N2CCOCC2)o1 (stereo not given)	-5.88
CC(C)c1nn(C)c(N(C)C)c1CNCc1cccc2c1OCO2	-3.25
Cc1ncsc1C(=O)NC1CCN(CC(N)=O)CC1	-6.12
O=C(c1cccnc1N1CCCCC1)N1CCCC(n2cccn2)C1 (stereo not given)	15.6
Cc1cccc(OCCNC(=O)CN2CCc3cncnc3C2)c1	-7.19
Cc1cnn(CC2CCCN2C(=O)c2c(C)noc2C(C)C)c1 (stereo not given)	11.7
c1ccc(-n2cc(CNCC3CCCN3c3cccnn3)nn2)cc1 (stereo not given)	-1.58
CC(C)c1n[nH]c(C2CN(C(=O)c3cn4ccccc4n3)CCO2)n1 (stereo not given)	15.7

Structure (SMILES)	cytotoxicity at 70.5 h [%]
CC(C)c1n[nH]c(C2CN(C(=O)c3cc(C(N)=O)cs3)CCO2)n1 (stereo not given)	0.559
CC(C)c1n[nH]c(C2CN(C(=O)c3cc(C4CC4)[nH]n3)CCO2)n1 (stereo not given)	-10.5
Cc1cnn(CC(C)NCc2nc(-c3cccs3)no2)c1 (stereo not given)	-7.53
CC(Cn1cccn1)NCc1nc(-c2ccco2)no1 (stereo not given)	-16.5
Cc1nc(C)n(CC2CN(Cc3cccc(OC(C)C)c3)CCO2)n1 (stereo not given)	-10.6
CC(C)c1ncc2c(n1)CN(Cc1nc(-c3ccsc3)no1)CC2	-13.7
Cc1nc(C)n(CC2CN(Cc3ccccc3OC(C)C)CCO2)n1 (stereo not given)	-9.52
CC(C)c1nccc(N2CCN(CC(=O)N3CCOCC3)CC2)n1	-10.5
CC(C)c1noc(C(C)N2CCN(Cc3cccs3)CC2)n1 (stereo not given)	12.6
COc1ccc(C)cc1CN1CCOC(Cn2nc(C)nc2C)C1 (stereo not given)	-19.6
Cc1nc(C)n(CC2CN(Cc3cccc4ccccc34)CCO2)n1 (stereo not given)	-11.6
c1cc(CN2CCOC(Cn3cccn3)C2)c2c(c1)OCCO2 (stereo not given)	-14.1
CCc1ccc(CNC(=O)NCc2nnc3n2CCC3)s1	17.1
O=C(NCCc1ccc(Cl)s1)NCc1nnc2n1CCCC2	-12.9
Cc1cnc2c(S(=O)(=O)N(C)C3CCS(=O)(=O)C3)cccc2c1 (stereo not given)	-16.4
CCC1CN(C(=O)CN2CCN(c3nccc(OC)n3)CC2)CCO1 (stereo not given)	-12.3
CC(Cn1cccn1)NCc1nc(-c2ccsc2)no1 (stereo not given)	5.46
COc1ccnc(N2CCN(CC(O)CN3CCOCC3)CC2)n1 (stereo not given)	-8.1
Cc1nc(C)n(CC2CCCN(Cc3cccc4c3OCCO4)C2)n1 (stereo not given)	12
Cc1nc(C)n(CC2CN(Cc3nc4ccccc4n3C)CCO2)n1 (stereo not given)	-13.3
Cc1nc(C)n(CC2CN(Cc3ccccc3C#N)CCO2)n1 (stereo not given)	-3.74
CCCn1nc2c(cc1=O)CN(Cc1nc(C)c(C)o1)CC2	-9.42
O=C(c1cc(Cl)c[nH]1)N1CCCC(c2cc(C(F)(F)F)[nH]n2)C1 (stereo not given)	3.82
